Assay results taken from patent publication US8987220B2, “Production of reprogrammed cells with restored potential” (Nupotential, Inc., priority 2005, dated 2015).
“Also recorded” adds a separate entry of the source.

Legend:
[1] = tested on: bovine serial nuclear transfer donor somatic cells; test: Relative methylated cytosine by reverse-phase HPLC after ATRA treatment; assay type: cell-based; details: 10-50 nM ATRA, cultured until confluent
Method: Bovine serial nuclear transfer donor somatic cells (a cell line that has never produced a successful live animal and which is characterized by low blastocyst development rates (<10%, P<0.001) and low pregnancy initiation rates (<1%, P<0.05)) were cultured in T-75 flasks until confluent in growth media (CON), or growth media treated with DMSO, or ATRA (DMSO vehicle); 10 nM, 50 nM, and 100 nM ATRA concentrations were used. Following […] treatment, the cells were collected and DNA from the cells was isolated. The DNA was then completely digested into single nucleotides for reverse-phase HPLC. Reverse-phase HPLC was performed as described by Cezar et al. to measure the relative levels of methylated cytosine residues.

[2] = tested on: GNMT; test: GNMT gene expression by real-time RT-PCR (GNMT/GAPD ratio); assay type: cell-based, bovine
[3] = tested on: Oct4, Sox2 and nanog; test: RT-PCR for stem cell/pluripotency markers after ATRA; assay type: cell-based, bovine; details: after ATRA treatment, data not shown
Method: To determine whether differentiation potential was restored, bovine somatic cells were cultured in T-75 flasks until confluent in CON, DMSO, or ATRA media (same RA as in Example 1).

[4] = tested on: primary rat hepatocytes; test: ATRA and adipogenic induction cocktail on primary hepatocytes; assay type: cell-based
Method: Primary rat hepatocytes were grown in media treated with 50-200 nM ATRA. Following treatment, cells were cultured under the same comparative conditions as described above for the bovine somatic cells, except an adipogenic induction cocktail (as described in EXAMPLE 2) was added to the T-75 flasks.

[5] = tested on: 3T3 L1 cells; test: ATRA followed by osteogenic induction media; assay type: cell-based, murine
Method: 3T3 L1 cells were grown in media treated with 50-200 nM ATRA. Following ATRA treatment, cells were transferred to 6-well plates and exposed to osteogenic induction media containing DMEM, FBS, ascorbic acid 2-phosphate, dexamethasone, beta glycerophosphate, and vitamin D for 21 days.

[6] = tested on: bovine somatic cells; test: ATRA followed by adipogenic induction cocktail
[7] = 50-200 nM ATRA then osteogenic induction 21 days

## CC1=C(/C=C/C(C)=C/C=C/C(C)=C/C(=O)O)C(C)(C)CCC1 [ATRA, all-trans retinoic acid]
[1]
  reduction in methylated cytosine compared to CON: 8-10%
[2]; ATRA-treated growth media, real-time RT-PCR
  GNMT gene expression (ratio of GNMT to GAPD): upregulation
[2]; prior experiments
  response of GNMT transcription to ATRA: dose response
[3]
  expression of Oct4, Sox2 and nanog: upregulation and strong expression
[4]; 50-200 nM ATRA then adipogenic induction media, day 4
  cell proliferation (confluency): proliferated significantly
[4]; 50-200 nM ATRA, pronounced within 48 hours of induction media
  cell morphology: Morphological changes
[5]; [7]
  alizarin staining for calcium phosphate mineralization: positive staining; also recorded: calcium phosphate mineralization
  alkaline phosphatase staining for osteoblast-like cells: positive staining
[5]; RT-PCR after ATRA and osteogenic induction
  osteocalcin and cbfa1 expression (osteoblast-specific markers): induction
[6]; ATRA then adipogenic induction 11-12 days
  oil red-O staining (lipid): positive
[6]; PCR after induction, data not shown
  PPARγ gene expression (adipocyte differentiation marker): induction
[6]; structures similar to embryoid bodies
  cell morphology during exposure to ATRA: significant morphological changes
